The supplement of paper PMC3974653
Where a name gives a salt, the structure may show the parent alone.

System: MTT (mouse pheochromocytoma)
Experiment: IC50 of cell viability (ATP content)
Conditions: (24 or 48 h)
Summary of the method: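 MTT mouse pheochromocytoma cells (5 µl of 200,000 cells/ml per well, white 1536-well plates, DMEM with 5% FBS and 1% horse serum) were cultured overnight at 37°C, 5% CO2. They then received 23 nl library compound in DMSO by pintool at 8 concentrations (final 0.5 nM to 46 µM) for 24 or 48 hrs. CellTiter-Glo ATP luminescence was read after 15 minutes. Signals were normalised to positive-control (100% inhibition) and DMSO (0%) wells, and IC50 came from a four-parameter logistic fit.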

| SMILES | IC50 of cell viability |
| --- | --- |
| CN(C)C(=O)Oc1cc(OC(=O)N(C)C)cc([C@@H](O)CNC(C)(C)C)c1 [Bambuterol hydrochloride] | > 46 µM |
| Clc1cccc(C(c2ccc3nc[nH]c3c2)n2ccnc2)c1 (configuration not stated) [LIAROZOLE] | > 46 µM |
| CC(C)(C)c1cc(O)ccc1O [tert-Butylhydroquinone] | > 46 µM |
| CCOC(=O)COC1=C(Cl)C2=C(C=C1)\C(=C(CCN(CC)CC)/C(=O)O2)C [CLORICROMENUM] | > 46 µM |
| CC(CCC(=O)O)C1CCC2C3C(=O)C[C@@H]4CC(=O)CC[C@@]4(C)C3CC(=O)[C@]12C (some centres not stated) [DEHYDROCHOLIC ACID] | > 46 µM |
| C[C@@]12CC[C@H]\3[C@@H](CC\C4=C3CCC(=O)C4)[C@H]1CC[C@]2(O)C#C [Norethynodrel] | > 46 µM |
| NC(=O)N[C@H]1NC(=O)NC1=O [Allantoin] | > 46 µM |
| C[C@]12CC[C@@H]3c4ccc(OC(=O)c5ccccc5)cc4CC[C@H]3[C@@H]1CC[C@@H]2O [ESTRADIOL BENZOATE] | > 46 µM |
| C=C[C@H]1CN2CCC1C[C@H]2[C@H](O)c1ccnc2ccc(OC)cc12.C=C[C@H]1CN2CCC1C[C@H]2[C@H](O)c1ccnc2ccc(OC)cc12.O.O.O=[S+]([O-])(O)O (some centres not stated) [Quinine hemisulfate salt monohydrate] | > 46 µM |
| CN(C)[C@H]\1[C@@H]2C[C@H]3\C(=C(\O)[C@@]2(O)C(=O)\C(=C1O)C(N)=O)C(=O)C4=C(O)C=CC(=C4[C@]3(C)O)Cl [Chlortetracycline hydrochloride] | > 46 µM |
| C[S+](=O)([O-])OCC(O)C(O)CO[S+](C)(=O)[O-] (configuration not stated) [TREOSULFAN] | > 46 µM |
| CN1C[C@@H]2C[C@H]1CN2c1cc2c(cc1F)c(=O)c(C(=O)O)cn2C1CC1 [Danofloxacin mesylate] | > 46 µM |
| CC(=O)O[C@@H]1C[C@]2(C)[C@H](C[C@@H](O)[C@H]3[C@@]4(C)CC[C@@H](O)[C@@H](C)[C@@H]4CC[C@@]32C)/C1=C(\CCC=C(C)C)C(=O)[O-].[Na+] [Fusidic acid sodium salt] | > 46 µM |
| Cc1nnc2n1-c1ccc(Cl)cc1C(c1ccccc1)=NC2 [alprazolam] | > 46 µM |
| O=C(C[S+]([O-])C(c1ccccc1)c1ccccc1)NO (configuration not stated) [ADRAFINILUM] | > 46 µM |
| C[C@]\12CCC(=O)\C=C1CC[C@H]3[C@@H]4CC[C@](O)(C(=O)CO)[C@@]4(C)C[C@H](O)[C@H]23 [HYDROCORTISONE] | > 46 µM |
| CC[C@@H](C)C(N)C(=O)O (some centres not stated) [ISOLEUCINE] | > 46 µM |
| CN(C)C(=N)NC(=N)N [Metformin hydrochloride] | > 46 µM |
| O=C(O)C(Cl)(Cl)Cl [Trichloroacetic acid] | > 46 µM |
| CSCCC(NC(=O)C(Cc1c[nH]c2ccccc12)NC(=O)CCNC(=O)OC(C)(C)C)C(=O)NC(CC(=O)O)C(=O)NC(Cc1ccccc1)C(N)=O (configuration not stated) [Pentagastrin] | > 46 µM |
| O=C1[C@@H]2[C@H]3CC[C@H](C3)[C@@H]2C(=O)N1CCCCN1CCN(c2ncccn2)CC1 [Tandospirone] | > 46 µM |
| CC(=O)[O][Al]([OH])[O]C(C)=O [Aluminum subacetate] | > 46 µM |
| Cc1nc(C)c(Cl)c(O)c1Cl [CLOPIDOL] | > 46 µM |

| SMILES | IC50 of cell viability |
| --- | --- |
| Clc1cccc(N2CCNCC2)c1 [1-(3-CHLOROPHENYL)PIPERAZINE] | > 46 µM |
| CCCOC(C(=O)OC1CCN(C)CC1)(c1ccccc1)c1ccccc1 [PROPIVERINE HYDROCHLORIDE] | > 46 µM |
| COC(=O)\C1=C(/C)N\C(=C(/C1C2=C(Cl)C(=CC=C2)Cl)C(=O)OC(C)C)COC(N)=O (configuration not stated) [LEMILDIPINE] | > 46 µM |
| CN1C(=O)c2ccccc2C1=O [N-Methylphthalimide] | > 46 µM |
| O=C(O)Cc1ccccc1Oc1ccc(Cl)cc1Cl [Fenclofenac] | > 46 µM |
| CCOC(=O)C/1=C(COCCN)/N\C(=C(C1C2=C(Cl)C=CC=C2)\C(=O)OC)C (configuration not stated) [Amlodipine besylate] | > 46 µM |
| C[C@@H]1CN(c2c(F)c(F)c3c(=O)c(C(=O)O)cn(C4CC4)c3c2F)C[C@H](C)N1 [Orbifloxacin] | > 46 µM |
| CCN(CC)CCOC(=O)C(C)(c1ccccc1)c1ccccc1 [APROFENUM] | > 46 µM |
| NCc1ccccc1Sc1ccccc1CO [Bipenamol hydrochloride] | > 46 µM |
| CCN[C@@H]1CN(CCCOC)[S+](=O)([O-])c2sc([S+](N)(=O)[O-])cc21 [Brinzolamide] | > 46 µM |
| CCCC(C)(COC(N)=O)COC(=O)NC(C)C (configuration not stated) [Carisoprodol] | > 46 µM |
| CC1OC(OC2C(O)CC(OC3C(O)CC(OC4CCC5(C)C(CCC6C5CCC5(C)C(C7=CC(=O)OC7)CCC65O)C4)OC3C)OC2C)CC(O)C1O (configuration not stated) [Digitoxin] | > 46 µM |
| C[C@]12CC[C@H](O)C[C@H]1CCC1C2CC[C@]2(C)[C@@H](c3ccc(=O)oc3)C[C@H]3O[C@]132 (some centres not stated) [BUFOGENIN] | > 46 µM |
| Brc1ccccc1-c1ccccc1 [2-Bromobiphenyl] | > 46 µM |
| O=C(O)C(=O)Nc1cccc(-c2nnn[nH]2)c1 [Acitazanolast] | > 46 µM |
| CC(CN(C)C)CN1c2ccccc2[S+](=O)([O-])c2ccccc21 (configuration not stated) [OXOMEMAZINE HCl] | > 46 µM |
| O=C1CCO1 [beta-Propiolactone] | > 46 µM |
| O[C@@](CCN1CCCC1)(c1ccccc1)C1CCCCC1 [Procyclidine hydrochloride] | > 46 µM |
| CC(C)c1ncc([N+](=O)[O-])n1C [IPRONIDAZOLE] | > 46 µM |
| CC/1=C/C(=O)[N-][S](=O)(=O)O1 [Acesulfame K] | > 46 µM |
| Cc1cc(O)c2c(O)c3c(O)cccc3cc2c1 [Chrysarobin] | > 46 µM |
| COC(C(=O)C(O)C(C)O)C1Cc2cc3cc(OC4CC(OC5CC(O)C(OC)C(C)O5)C(OC(C)=O)C(C)O4)c(C)c(O)c3c(O)c2C(=O)C1OC1CC(OC2CC(OC3CC(C)(O)C(OC(C)=O)C(C)O3)C(O)C(C)O2)C(O)C(C)O1 (configuration not stated) [CHROMOMYCIN A3] | > 46 µM |
| Cc1ccc(N)cc1O [5-Amino-o-cresol] | > 46 µM |

| SMILES | IC50 of cell viability |
| --- | --- |
| CC12CCC(=O)CC1CCC1C2CCC2(C)C1CCC2(C)O (configuration not stated) [Mestanolone] | > 46 µM |
| CCOC(=O)[C@H](CCc1ccccc1)NC(C)C(=O)N1CC2(CC1C(=O)O)SCCS2 (some centres not stated) [Spirapril] | > 46 µM |
| CC(C)C1CCC(C(=O)NC(Cc2ccccc2)C(=O)O)CC1 (configuration not stated) [NATEGLINIDE] | > 46 µM |
| C[N+]1(CCF)[C@@H]2CC[C@@H]1CC(OC(=O)C(O)(c1ccccc1)c1ccccc1)C2 (some centres not stated) [Flutropium] | > 46 µM |
| O=[N+]([O-])c1cc([N+](=O)[O-])c2ccccc2c1 [1,3-Dinitronaphthalene] | > 46 µM |
| CN1CCN(CCCN2c3ccccc3Sc3ccc([S+](=O)([O-])N(C)C)cc32)CC1.C[S+](=O)([O-])O.C[S+](=O)([O-])O [Thioproperazine dimesylate] | > 46 µM |
| CC1CCC(C(C)C)C(=O)C1 (configuration not stated) [MENTHONE] | > 46 µM |
| CCCCC/C=C\C/C=C\C/C=C\CCCCC(=O)O [Gamolenic acid] | > 46 µM |
| OCCN1CCN(CCCN2c3ccccc3Sc3ccc(Cl)cc32)CC1 [Perphenazine] | > 46 µM |
| COCc1c(C(C)C)nc(C(C)C)c(/C=C/[C@@H](O)C[C@@H](O)CC(=O)[O-])c1-c1ccc(F)cc1 [CERIVASTATIN SODIUM] | > 46 µM |
| Cc1onc(-c2c(Cl)cccc2Cl)c1C(=O)N[C@@H]1C(=O)N2[C@@H]1SC(C)(C)[C@@H]2C(=O)[O-] [Dicloxacillin sodium salt monohydrate] | > 46 µM |
| O=C1CC[C@@H](C(=O)N2CSC[C@H]2C(=O)O)N1 [Pidotimod] | > 46 µM |
| CNC(C)C(O)c1ccc(O)cc1 (configuration not stated) [P-HYDROXYEPHEDRINE HYDROCHLORIDE] | > 46 µM |
| CC(=O)OC1CCC2C3CCc4cc(O)ccc4C3CCC12C (configuration not stated) [ESTRADIOL ACETATE] | > 46 µM |
| COc1cc(C[C@H]2NCCc3cc(O)c(O)cc32)cc(OC)c1OC [Trimethoquinol] | > 46 µM |
| CCCCCCCCCCCCCCCCOP(=O)([O-])OCC[N+](C)(C)C [MILTEFOSINE] | > 46 µM |
| O=C([O-])COc1nn(Cc2ccccc2)c2ccccc12 [BENDAZAC] | > 46 µM |
| CCC1(C)CC(=O)NC(=O)C1 [Bemegride] | > 46 µM |
| CC(C)OC(=O)C(C)(C)Oc1ccc(C(=O)c2ccc(Cl)cc2)cc1 [Fenofibrate] | > 46 µM |
| CN[C@H]1[C@@H](O)[C@@H](OC[C@@]1(C)O)O[C@@H]2[C@H](N)C[C@H](N)[C@H](O[C@@H]3O\C(=C/C[C@H]3N)CN)[C@H]2O [Sisomicin sulfate] | > 46 µM |
| CCCCCCCCCCCCCCCC(=O)OC[C@H](O)[C@H]1OC[C@@H](O)[C@@H]1O [SORBITAN MONOPALMITATE] | > 46 µM |
